The values below come from PubChem BioAssay AID190 (DTP/NCI, 2004).

The assay relates to AKR/Lw mice, AKR lymphoma ip, median survival T/C. As to the kind of experiment: NCI In Vivo Anticancer Drug Screen. Data for tumor model Lymphoma AKR (Transplanted) (intraperitoneal) in AKR/Lw mice. As to conditions: endpoint: median survival time, higher = longer survival. On the procedure:
The antitumor activity of compounds was measured in mice bearing transplantable tumors. Survival or tumor size were measured and the results are expressed as the measurement made in the treated group (T) divided by the measurement made in the vehicle treated control group (C). The tumor model used in this assay is Lymphoma AKR (Transplanted) (intraperitoneal) in AKR/Lw mice

Setting [1] is: dose: 50.0 mg/kg/injection, schedule: Q04DX003 (ip), vehicle: Klucel (hydroxypropylcellulose) (HPC).
[2] abbreviates: dose: 100.0 mg/kg/injection, schedule: Q01DX001 (ip), vehicle: Klucel (hydroxypropylcellulose) (HPC).
The mark [3] stands for this setting: dose: 100.0 mg/kg/injection, schedule: Q04DX003 (ip), vehicle: Klucel (hydroxypropylcellulose) (HPC).
The mark [4] stands for this setting: dose: 200.0 mg/kg/injection, schedule: Q04DX003 (ip), vehicle: Klucel (hydroxypropylcellulose) (HPC).

Each structure is given as a SMILES string. Where “and” joins values, the source holds several entries; their conditions need not be identical. Equal values may be shown once. Inconclusive results and toxic doses are left out.

`CN(C)/N=N/c1nc[nH]c1C(N)=O`: the T/C runs as follows: (dose: 12.5 mg/kg/injection, schedule: Q01DX009 (ip), vehicle: saline) 120 % of control; (dose: 25.0 mg/kg/injection, schedule: Q01DX009 (ip), vehicle: saline with Tween-80) 111 % of control; (dose: 25.0 mg/kg/injection, schedule: Q01DX009 (ip), vehicle: saline) 106 % of control and 123 % of control; (dose: 25.0 mg/kg/injection, schedule: Q04DX003 (ip), vehicle: Klucel (hydroxypropylcellulose) (HPC)) 102 % of control; (dose: 37.5 mg/kg/injection, schedule: Q04DX003 (ip), vehicle: Klucel (hydroxypropylcellulose) (HPC)) 116 % of control; (dose: 50.0 mg/kg/injection, schedule: Q01DX001 (ip), vehicle: Klucel (hydroxypropylcellulose) (HPC)) 102 % of control. The T/C is 116 % of control (dose: 50.0 mg/kg/injection, schedule: Q01DX005 (ip), vehicle: water); 111 % of control (dose: 50.0 mg/kg/injection, schedule: Q01DX009 (ip), vehicle: saline with Tween-80); 105 % of control under setting [1]; 102 % of control (dose: 75.0 mg/kg/injection, schedule: Q04DX003 (ip), vehicle: Klucel (hydroxypropylcellulose) (HPC)); 158 % of control (dose: 90.0 mg/kg/injection, schedule: Q01DX005 (ip), vehicle: Klucel (hydroxypropylcellulose) (HPC)); 90 % of control and 113 % of control under setting [2]. The T/C is 105 % of control and 107 % of control (dose: 100.0 mg/kg/injection, schedule: Q01DX001 (ip), vehicle: saline); 120 % of control (dose: 100.0 mg/kg/injection, schedule: Q01DX005 (ip), vehicle: water); 100 % of control and 123 % of control (dose: 100.0 mg/kg/injection, schedule: Q01DX009 (ip), vehicle: Klucel (hydroxypropylcellulose) (HPC)); 111 % of control (dose: 100.0 mg/kg/injection, schedule: Q01DX009 (ip), vehicle: saline with Tween-80); 87 % of control under setting [3]; 186 % of control and 188 % of control (dose: 135.0 mg/kg/injection, schedule: Q01DX005 (ip), vehicle: Klucel (hydroxypropylcellulose) (HPC)). The T/C reads like this: (dose: 150.0 mg/kg/injection, schedule: Q01DX009 (ip), vehicle: saline) 111 % of control; (dose: 200.0 mg/kg/injection, schedule: Q01DX001 (ip), vehicle: Klucel (hydroxypropylcellulose) (HPC)) 123 % of control; (dose: 200.0 mg/kg/injection, schedule: Q01DX001 (ip), vehicle: saline) 107 % of control (2×) and 113 % of control; (dose: 200.0 mg/kg/injection, schedule: Q01DX005 (ip), vehicle: Klucel (hydroxypropylcellulose) (HPC)) 97 % of control; (dose: 200.0 mg/kg/injection, schedule: Q01DX005 (ip), vehicle: water) 114 % of control; (dose: 200.0 mg/kg/injection, schedule: Q01DX009 (ip), vehicle: Klucel (hydroxypropylcellulose) (HPC)) 100 % of control and 123 % of control. In addition, the T/C was 117 % of control (dose: 200.0 mg/kg/injection, schedule: Q01DX009 (ip), vehicle: saline with Tween-80); 100 % of control and 121 % of control and 122 % of control under setting [4]; 111 % of control (dose: 250.0 mg/kg/injection, schedule: Q04DX003 (ip), vehicle: Klucel (hydroxypropylcellulose) (HPC)); 120 % of control and 123 % of control (dose: 300.0 mg/kg/injection, schedule: Q01DX001 (ip), vehicle: Klucel (hydroxypropylcellulose) (HPC)); 163 % of control (dose: 350.0 mg/kg/injection, schedule: Q04DX003 (ip), vehicle: Klucel (hydroxypropylcellulose) (HPC)); 107 % of control and 111 % of control (dose: 500.0 mg/kg/injection, schedule: Q01DX001 (ip), vehicle: Klucel (hydroxypropylcellulose) (HPC)). For the same compound, the T/C was 110 % of control and 111 % of control (dose: 600.0 mg/kg/injection, schedule: Q01DX001 (ip), vehicle: Klucel (hydroxypropylcellulose) (HPC)); 102 % of control (dose: 600.0 mg/kg/injection, schedule: Q01DX009 (ip), vehicle: Klucel (hydroxypropylcellulose) (HPC)).

Consider `Cc1ccc(N2C(=O)CC(Sc3ccccc3N)C2=O)cc1` (stereo not drawn), for which the T/C under setting [1] was 100 % of control, the T/C under setting [2] is 100 % of control, the T/C under setting [3] was 90 % of control and the T/C under setting [4] was 90 % of control.

On to `COc1cc2c(cc1OC)C1CCN3CCCC3N1CC2` (stereo not drawn), for which the T/C under setting [2] was 100 % of control.

`S=P(N1CC1)(N1CC1)N1CC1`: the T/C is, setting by setting: (dose: 0.1 mg/kg/injection, schedule: Q01DX009 (ip), vehicle: saline) 110 % of control; (dose: 0.25 mg/kg/injection, schedule: Q01DX009 (ip), vehicle: saline) 87 % of control; (dose: 0.5 mg/kg/injection, schedule: Q01DX009 (ip), vehicle: saline) 90 % of control; (dose: 0.5 mg/kg/injection, schedule: Q04DX003 (ip), vehicle: saline) 117 % of control; (dose: 1.0 mg/kg/injection, schedule: Q01DX009 (ip), vehicle: saline) 108 % of control and 112 % of control and 117 % of control; (dose: 1.0 mg/kg/injection, schedule: Q04DX003 (ip), vehicle: saline) 120 % of control. Further, the T/C (dose: 1.2 mg/kg/injection, schedule: Q04DX003 (ip), vehicle: saline) is 100 % of control; the T/C (dose: 1.5 mg/kg/injection, schedule: Q01DX001 (ip), vehicle: saline) was 106 % of control; the T/C (dose: 2.0 mg/kg/injection, schedule: Q01DX009 (ip), vehicle: saline) was 111 % of control; the T/C (dose: 2.5 mg/kg/injection, schedule: Q01DX001 (ip), vehicle: saline) was 104 % of control; the T/C (dose: 2.5 mg/kg/injection, schedule: Q04DX003 (ip), vehicle: saline) was 87 % of control and 112 % of control and 117 % of control; the T/C (dose: 3.0 mg/kg/injection, schedule: Q01DX001 (ip), vehicle: saline) is 109 % of control. Also, the T/C runs as follows: (dose: 3.0 mg/kg/injection, schedule: Q04DX003 (ip), vehicle: saline) 122 % of control; (dose: 3.75 mg/kg/injection, schedule: Q01DX009 (ip), vehicle: saline) 116 % of control; (dose: 5.0 mg/kg/injection, schedule: Q01DX001 (ip), vehicle: saline) 95 % of control and 100 % of control and 103 % of control; (dose: 6.0 mg/kg/injection, schedule: Q01DX001 (ip), vehicle: saline) 104 % of control and 106 % of control; (dose: 6.2 mg/kg/injection, schedule: Q01DX001 (ip), vehicle: saline) 118 % of control; (dose: 6.25 mg/kg/injection, schedule: Q01DX001 (ip), vehicle: saline) 123 % of control. The T/C was 102 % of control and 116 % of control (dose: 7.5 mg/kg/injection, schedule: Q01DX001 (ip), vehicle: saline); 105 % of control (dose: 7.5 mg/kg/injection, schedule: Q01DX009 (ip), vehicle: saline); 111 % of control (dose: 10.0 mg/kg/injection, schedule: Q01DX001 (ip), vehicle: saline); 87 % of control (dose: 10.0 mg/kg/injection, schedule: Q04DX003 (ip), vehicle: saline); 88 % of control (dose: 15.0 mg/kg/injection, schedule: Q01DX009 (ip), vehicle: saline); 97 % of control (dose: 16.0 mg/kg/injection, schedule: Q04DX003 (ip), vehicle: saline). In addition, the T/C reads like this: (dose: 12.0 micrograms/kg/injection, schedule: Q01DX009 (ip), vehicle: saline) 111 % of control; (dose: 12.5 micrograms/kg/injection, schedule: Q01DX009 (ip), vehicle: saline) 102 % of control; (dose: 25.0 micrograms/kg/injection, schedule: Q01DX009 (ip), vehicle: saline) 100 % of control and 111 % of control; (dose: 50.0 micrograms/kg/injection, schedule: Q01DX009 (ip), vehicle: saline) 105 % of control; (dose: 100.0 micrograms/kg/injection, schedule: Q01DX009 (ip), vehicle: saline) 94 % of control and 108 % of control; (dose: 200.0 micrograms/kg/injection, schedule: Q01DX009 (ip), vehicle: saline) 102 % of control.

On to `CC(=O)CC(=O)Nc1ccc([N+](=O)[O-])cc1`, for which the T/C by setting is: (dose: 50.0 mg/kg/injection, schedule: Q01DX001 (ip), vehicle: other) 100 % of control; (dose: 100.0 mg/kg/injection, schedule: Q01DX001 (ip), vehicle: other) 98 % of control; (dose: 100.0 mg/kg/injection, schedule: Q01DX001 (ip), vehicle: saline with Tween-80) 96 % of control; (dose: 200.0 mg/kg/injection, schedule: Q01DX001 (ip), vehicle: other) 94 % of control; (dose: 400.0 mg/kg/injection, schedule: Q01DX001 (ip), vehicle: other) 86 % of control; (dose: 400.0 mg/kg/injection, schedule: Q01DX001 (ip), vehicle: saline with Tween-80) 92 % of control.
